{"source": "patent US20260226048A1", "about": "“MULTI-CYCLIC IRAK AND FLT3 INHIBITING COMPOUNDS AND USES THEREOF” (CHILDREN'S HOSPITAL MEDICAL CENTER, priority 2023, published 2026)", "assay_type_in_all_cases": "cell-based", "key": {"[1]": {"tested_on": "NF-κB-inducible SEAP reporter in THP-1-Blue NF-κB cells", "assay": "NF-kB SEAP reporter assay in THP-1-Blue NF-κB cells", "settings": "24 hours", "method_in_brief": "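Cells (1×10^5/well) stimulated with Pam3CSK4 (1 ng/mL) or hIL1B (1 ng/mL), then after 10-20 min given 10-point 1:10 compound dilutions from 1 μM or 3 μM for 24 h at 37° C. Secreted SEAP in supernatant read with QUANTI-Blue (30-60 min, 37° C) at 620 nm.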"}, "[2]": {"tested_on": "MOLM14-D835Y cells (FLT3-ITD (D835Y) mutant)", "assay": "Combination drug screening with venetoclax in MOLM14 (D835Y) cells (Cell Titre Glo, 10 × 10)", "parameters": "Excess HSA (sum excess HSA score, combination with venetoclax): scale not given here", "settings": "for Concentration of a compound of the disclosure, or gilteritinib, needed to decrease the 62.5 nM Ven response to <10% in MOLM14(D835Y) cells: combination with 62.5 nM Venetoclax, Cell Titer Glo, 48 hours, response <10%", "description": "These assays were performed using the Cell Titre Glo assay, measured at 48 hours.\nA smaller concentration indicates higher potency to synergize with Venetoclax."}, "IRAK4": {"target": "T1, IRAK4 (Homo sapiens, UniProt Q9NWZ3)", "T1 sequence (Q9NWZ3 1-460)": "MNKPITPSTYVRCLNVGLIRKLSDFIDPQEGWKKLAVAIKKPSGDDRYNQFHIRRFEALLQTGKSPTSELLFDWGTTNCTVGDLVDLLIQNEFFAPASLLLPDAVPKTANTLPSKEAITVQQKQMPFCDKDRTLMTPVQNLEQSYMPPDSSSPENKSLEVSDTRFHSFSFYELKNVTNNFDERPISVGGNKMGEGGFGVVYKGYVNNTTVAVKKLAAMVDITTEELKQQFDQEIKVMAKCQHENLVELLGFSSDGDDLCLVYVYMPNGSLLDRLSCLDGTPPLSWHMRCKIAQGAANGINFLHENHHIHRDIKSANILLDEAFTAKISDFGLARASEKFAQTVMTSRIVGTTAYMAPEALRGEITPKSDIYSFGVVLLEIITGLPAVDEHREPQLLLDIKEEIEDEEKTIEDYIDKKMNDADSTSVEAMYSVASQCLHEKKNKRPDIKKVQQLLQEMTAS", "assay": "Reaction Biology NanoBRET target engagement assay in HEK-293 cells, IRAK4", "settings": "live HEK-293 cells transfected with Kinase-NanoLuc fusion, 1 hour", "excerpt": "The NanoBRET assay measures kinase engagement in real time in the context of the intact cell. Unlike the previously described biochemical kinase assay methodology in Example 33, the NanoBRET assay measures the binding and activity characteristics under equilibrium conditions using full-length kinases in the presence of cellular concentrations of ATP in live, uncompromised cells. As such, the assay provides a more relevant assessment of kinase potency and selectivity that would be expected to be observed in the native cellular environment, where potency is often considerably lower than that observed in the isolated biochemical assays (Vasta, J. D. et al., (2018) Cell Chem. Biol. 25, 206-214). The assay uses a Kinase-NanoLuc® fusion vector expressing a kinase protein to which a luciferase tag has been added, a cell-permeant fluorescent NanoBRET™ tracer, a NanoLuc® substrate, and an extracellular NanoLuc® inhibitor. Upon expression of the luciferase-tagged kinase, cells will produce a strong BRET signal only in the presence of the NanoBRET™ tracer. The extracellular NanoLuc® inhibitor ensures that the BRET signal observed emanates only from live cells. Because the BRET signal has tight distance constraints, addition of the test compound will decrease the BRET signal if the compound competes with the NanoBRET™ tracer for binding to the kinase domain. Under the appropriate tracer conditions established by the manufacturer, quantitative intracellular affinity and relative potency can then be determined using Mass Action model equations.\nHEK-293 cells were purchased from ATCC. FuGENEHD Transfection Reagent, Kinase-NanoLucfusion plasmids, Transfection Carrier DNA, NanoBRETTracers and dilution buffer, NanoBRETNano-Glo Substrate, Extracellular NanoLucInhibitor were obtained from Promega.\nAssays were conducted following Promega assay protocol with some modifications. HEK-293 Cells were transiently transfected with Kinase-NanoLucFusion Vector DNA by FuGENEHD Transfection Reagent. Testing compounds were delivered into 384 well assay plate by Echo 550 (LabcyteInc, Sunnyvale, CA). Transfected cells were harvested and mixed with NanoBRETTracer Reagent and dispensed into 384 well plates and incubated at 37° C. in 5% C02 cell culture incubator for 1 hour. The NanoBRETNano-Glo Substrate plus Extracellular NanoLucInhibitor Solution were added into the wells of the assay plate and incubated for 2-3 minutes at room temperature. The donor emission wavelength (460 nm) and acceptor emission wavelength (600 nm) were measured in the EnVisionplate reader. The BRET Ratios were calculated. BRET Ratio=[(Acceptor sample÷Donor sample)−(Acceptor no-tracer control÷Donor no-tracer control)]. The IC50 values of compounds were calculated with Prism GraphPad program.\n• 1). Cultivate HEK-293 cells (70-80% confluence) appropriately prior to assay. Trypsinize and collect HEK-293 cells. • 2). Prepare lipid: DNA complexes as follows: • a. Prepare a 10 μg/ml solution of DNA in Opti-MEM without serum that consists of the following ratios of carrier DNA and DNA encoding NanoLuc® fusion. 9.0 μg/mL of Transfection Carrier DNA, 1.0 μg/mL of NanoLuc fusion vector DNA and 1 mL of Opti-MEM without phenol red. Mix thoroughly. • b. Add 30 μl of FuGENE HD Transfection Reagent into each milliliter of DNA mixture to form lipid: DNA complex. • c. Mix by inversion 10 times. • d. Incubate at ambient temperature for 20 minutes to allow complexes to form. • 3). In a sterile, conical tube, mix 1 part of lipid:DNA complex with 20 parts of HEK-293 cells in suspension. Mix gently by inversion 5 times. • 4). Dispense cells+lipid:DNA complex into a sterile tissue culture dish and incubate for 22-24 hours.\nEach test compound is delivered from the compound source plate to the wells of 384-well white NBS plate by Echo 550.\n3. Preparation of Cells with NanoBRET™ Tracer Reagent • 1). […]"}, "[3]": {"settings": "THP-1-Blue NF-κB cells stimulated with Pam3CSK4 (1 ng/mL), read-out: NF-κB Pam3SCK4 IC50"}, "[4]": {"settings": "THP-1-Blue NF-κB cells stimulated with hIL1B (1 ng/mL), read-out: NF-κB IL1B IC50"}}, "note": "Like-named read-outs stand apart in the source and are kept apart here.", "data": [{"compound": "COc1cc2ncc(-c3nc(N[C@H]4CNCC[C@@H]4F)ncc3F)n2nc1C1COC1", "note": "[Compound 92a, 5-fluoro-N-((3S,4S)-4-fluoropiperidin-3-yl)-4-(7-methoxy-6-(oxetan-3-yl)imidazo[1,2-b]pyridazin-3-yl)pyrimidin-2-amine]", "values": [{"measurement": "IC50", "setting": "[1]; [3]", "value": 0.053, "unit": "µM"}, {"measurement": "IC50", "setting": "[1]; [4]", "value": 0.06, "unit": "µM"}, {"measurement": "Concentration of a compound of the disclosure, or gilteritinib, needed to decrease the 62.5 nM Ven response to <10% in MOLM14(D835Y) cells", "setting": "[2]", "value": 12.5, "unit": "nM"}, {"measurement": "IC50", "setting": "IRAK4", "value": "< 0.0005", "unit": "µM"}]}, {"compound": "CC(C)(O)c1cn2c(-c3nc(N[C@H]4CNCC[C@@H]4F)ncc3F)cnc2cn1", "note": "[Compound 100a, 2-(3-(5-fluoro-2-(((3S,4S)-4-fluoropiperidin-3-yl)amino)pyrimidin-4-yl)imidazo[1,2-a]pyrazin-6-yl)propan-2-ol]", "values": [{"measurement": "IC50", "setting": "[1]; [3]", "value": 0.069, "unit": "µM"}, {"measurement": "IC50", "setting": "[1]; [4]", "value": 0.083, "unit": "µM"}, {"measurement": "Excess HSA (sum excess HSA score, combination with venetoclax)", "setting": "[2]; 10 × 10 dataset, Cell Titre Glo at 48 hours, optimal of 4 dose combinations, negative = synergy", "value": "−1548"}, {"measurement": "Concentration of a compound of the disclosure, or gilteritinib, needed to decrease the 62.5 nM Ven response to <10% in MOLM14(D835Y) cells", "setting": "[2]", "value": 625, "unit": "nM"}, {"measurement": "IC50", "setting": "IRAK4", "value": 0.008, "unit": "µM"}]}]}
